Experimental data from patent US7947279B2, “Peptide having hydrolase activity” (The Trustees of Columbia University in the City of New York, priority 2005, dated 2011).
“Also recorded” adds a separate entry of the source.

What was measured:
[1] = system: CA1-LTP in hippocampal slices; assay: CA1-LTP in hippocampal slices (theta-burst); type: cell-based, mouse; conditions: for baseline transmission in slices without tetanic stimulation: non-tetanized slices; for rescue of LTP at different concentrations, S18Y versus TAT-HA-Uch-L1 (words): 1 hr pre-treatment, then Aβ 200 nM 20 min, as low as 5 nM; for Aβ-induced impairment of CA1-LTP (words): fusion protein 20 nM 1 hr, then plus Aβ 200 nM 20 min
PKA [2] = assay: PKA kinase activity in hippocampal slices; type: cell-based, mouse
PKA [3] = assay: PKA kinase activity in hippocampal cultures; type: cell-based, rat
Procedure: PKA Kinase Activity Measurement. Primary hippocampal neurons from E18 rats were dissociated and cultured as described (Vitolo et al, Proc Natl Acad Sci USA 99:13217-13221 (2002)). […]
Hippocampal slices were lysed with RIPA lysis buffer and homogenized by Dounce homogenizer on ice. 5 DIV primary cultures were treated for 24 hrs and cells were lysed with RIPA lysis buffer.
Levels of intracellular PKA kinase activity were measured by PKA Kinase Activity Assay Kit (Stressxpress) according to manufacturer's instructions.
(§1) Preparation of Cell Cultures. Hippocampal cell cultures were prepared as previously described (Vitolo et al., 2002). In cell culture experiments fetuses at embryonic day 18 from timed pregnant Sprague-Dawley rats (Taconic Farms) were used. Fetuses were sacrificed and the hippocampi removed. Neurons were then dissociated, plated on 6 well-plates coated with poly-L-lysine and maintained in a defined serum-free medium containing minimum essential medium supplemented with N-2, glucose, albumin, pyruvic acid, antibiotics and antimycotics. […] 5 DIV cells were used for the experiments.

[4] = system: SY5Y neuroblastoma cells transfected with a degron CL1-GFP expression vector; assay: Proteasome reporter assay (GFP^u); type: cell-based, human; conditions: substance alone
Procedure: Proteasome reporter assays. In this cell line, human neuroblastoma SH-SY5Y cells were permanently transfected with reporter construct consisting of green fluorescent protein (GFP) conjugated at its C-terminus to a short degron sequence (CL-1) (Gilon et al., 1998). […] The SY5Y-GFP^u cells were grown in 1×DMEM (Invitrogen) supplemented with 15% fetal bovine serum (JRH), 1× penicillin/streptomycin (Gibco). After indicated treatments, GFP^u concentrations were assayed by densitometric analysis of immunoblots of total protein extracts (10 ug/lane) using monoclonal GFP antibodies (Santa Cruz Biotechnology) and visualized with HRP-conjugated secondary antibodies and ECL (Pierce). Loading equalization was normalized by probing blots with anti-ERK antibodies (Santa Cruz Biotechnology).

[5] = system: PPF in hippocampal slices; assay: Paired pulse facilitation (PPF) in hippocampal slices; type: cell-based, mouse
[6] = system: BST at the Schaffer collateral/CA1 connection of hippocampal slices; assay: Basal synaptic transmission (BST) in hippocampal slices; type: cell-based, mouse
phospho-CREB at Ser-133 = assay: Phospho-CREB (Ser-133) Western blot in hippocampal cultures; type: cell-based, rat; conditions: for glutamate-induced CREB phosphorylation (words): 3 μM Aβ 24 hrs alone; for effect of Aβ on glutamate-induced CREB phosphorylation (words): fusion protein 100 nM, 3 μM Aβ 24 hrs, 50 μM glutamate 15 min
Procedure: (§2) Western Blotting: Protein levels were assessed using standard procedures. Protein extraction was performed using buffer with and without detergent. For the extraction of protein using detergent, hippocampal tissues and cultured hippocampal neurons (5 DIV) were homogenized in RIPA buffer (50 mM Tris-HCl pH 7.4, 1% Triton X-100, 1% sodium deoxycholate, 0.1% SDS, 150 mM sodium chloride, 10 mM sodium fluoride, 30 mM sodium pyrophosphate, 50 mM sodium orthovanadate) containing 1× complete protease inhibitor (Roche) and 1 mM phenylmethylsulfonyl fluoride (PMSF). For extraction of proteins without detergent, hippocampal extracts were homogenized with disposable dounce homogenizers in buffer A, containing 10 mM HEPES pH 7.3, 300 mM sucrose, protease 1× complete protease inhibitor (Roche) and PMSF. After centrifugation at 10,000×g supernatant proteins were resolved on a 8% or 4-20% gradient Tris-Glycine gel, transferred onto PVDF or nitrocellulose membrane and blocked in 5% skim milk in PBS-Tween 0.1% (PBS-T). Membranes were probed with primary antibodies, and after washing with PBS-T incubated with an appropriate HRP-conjugated secondary antibody. The following antibodies were used: mouse monoclonal anti-ubiquitin (Chemicon), rabbit polyclonal anti-pCREB (Upstate Biotech.), rabbit polyclonal anti-PKA-RIIα (Santa Cruz Biotech. Inc), mouse monoclonal anti-Uch-L1 (Novocastra), monoclonal mouse anti-HA (Santa Cruz Biotech. Inc), and anti-PKA IIα. Detection was performed using HRP-conjugated secondary antibodies (Pierce, Rockford, Ill.). To control loading and transfer, protein immunoreactivities were normalized against total extracellular signal-regulated protein kinases (ERK1/2) levels with a rabbit analyzed using a rabbit polyclonal anti-ERK1/2 antibody (Cell Signaling Technology, Inc). NIH IMAGE was used to analyze the scanned blots and quantify the intensity of the protein signals.
as §1

PKA RIIα = PKA RIIα levels in hippocampal slices (Western blot); type: cell-based, mouse; conditions: for PKA RIIα levels (words): Aβ 200 nM 20 min alone
Procedure: as §2

monoubiquitin = assay: Monoubiquitin levels (quantitative Western blot); type: cell-based, mouse
Procedure: as §2

Uch-L1 = assay: Hydrolase (ubiquitin-AMC) assay on hippocampal slices; type: cell-based, mouse; conditions: 200 nM Aβ alone
Procedure: Slice preparation. Mice were decapitated and their hippocampi removed. […] Slices were permitted to recover from cutting for at least 90 min. before recordings. For experiments with lactacystin, slices were perfused with the drug or vehicle for 2 to 4 hrs in a small volume (10 ml) chamber.
Briefly, hippocampal tissue was treated with tissue protein extraction reagent (T-PER; Pierce) containing freshly added EDTA-free protease inhibitors. Homogenate was centrifuged at 10,000 rpm for 5 min. Protein concentration was measured in the supernatant using the BCA protein assay reagent. In some experiments hydrolysis was initiated by adding 10 μl of 20 nM Uch-L1 or Uch-L3 (Boston Biochem). The hydrolase assay was performed using fluorogenic ubiquitin-7-amino-4-methylcoumarin (ubiquitin-AMC) (Boston Biochem) as a substrate. The substrate was diluted in assay buffer (50 mM Tris-HCL, 0.5 mM EDTA, 5 mM dithiothreitol and 0.1 mg/ml ovalbumin, pH 7.6). Each reaction mixture containing 400 nM substrate and 100 μg enzyme sample was incubated for 5 min at room temperature. The reaction was monitored using a fluorescence spectrophotometer (CytoFluor Series 4000, ABI Inc) at 25° C. The free AMC fluorophore was excited at 380 nm and measured at 460 nm. […] In some experiments, hydrolysis was also measured on the soluble and insoluble fractions (FIG. 28D). In a group of experiments hydrolysis was measured by mixing ubiquitin-AMC with 20 nM TAT fusion proteins (FIG. 27C). In other experiments the substrate was Nedd8-AMC (Boston Biochem).

cAMP = assay: Intracellular cAMP enzyme immunoassay; type: cell-based, rat; conditions: Aβ 3 μM 24 hrs alone
Procedure: Intracellular cAMP Enzyme Immunoassay. Hippocampal neurons from E18 rats were dissociated and plated on poly-L-lysine coated 6-well plates in minimum essential medium supplemented with N-2, glucose, albumin, pyruvic acid, antibiotics and antimycotics. […] After 24 hours, cell lysates were obtained and intracellular cAMP levels were measured using cAMP Biotrak Enzymeimmunoassay (EIA) System (Amersham) in accordance with manufacturer's instructions.

phospho-CREB = assay: Phospho-CREB immunofluorescence in hippocampal slices; type: cell-based, mouse; conditions: for tetanus-induced increase in phospho-CREB (words): Aβ alone
[7] = prolonged exposure lactacystin 10 μM
[8] = lactacystin 10 μM, 2 to 4 hour exposure

CCCCCCOC(=O)[C@]1(O)C[C@@H]2O[C@@]1(C)n1c3ccccc3c3c4c(c5c6ccccc6n2c5c31)C(=O)NC4 [KT5720, reference compound]
reversal of LTP reduction by Uch-L1 fusion protein ([1]; KT5720 1 μM, Uch-L1 fusion protein 20 nM, Aβ 200 nM): blocked

CC(=O)N[C@@H](CSC(=O)[C@]1([C@@H](O)C(C)C)NC(=O)[C@H](C)[C@@H]1O)C(=O)O [lactacystin, reference compound]
PKA activity (PKA [2]; lactacystin 10 μM 1 hr pretreatment, TAT-HA-Uch-L1 plus Aβ): 74.9±3.21%
beneficial effect of TAT-HA-Uch-L1 on PKA activity (PKA [3]; lactacystin 10 μM for 1 hr): blocked the beneficial effect
GFP^u levels [4]: much larger increase in GFP
PPF ([5]; lactacystin 10 μM, 2-4 hrs): markedly reduced
PPF at 50 ms interval [5, 7]: 150.96±10.18%
PPF at 300 ms interval [5, 7]: 119.11±5.43%
BST ([6]; lactacystin 10 μM, 2-4 hrs): markedly reduced; also recorded: strongly reduced
BST (slope of the input-output curve at 35 V) [6, 8]: approximately 50 % that of vehicle treated slices
BST ([6]; lactacystin 10 μM, 15 min): did not change; also recorded: does not affect; also recorded: did not affect BST
BST at 35V stimulation [6, 7]: 0.93±0.06 mV/ms
LTP ([1]; lactacystin 10 μM, 2-4 hrs): markedly reduced; also recorded: blocked
LTP [1, 8]: approximately 50 % that of vehicle treated slices
LTP ([1]; lactacystin 10 μM, 15 min): did not change; also recorded: does not affect; also recorded: did not affect CA1-LTP
baseline transmission in slices without tetanic stimulation [1]: did not affect baseline transmission
LTP at 60 min [1, 7]: 116.17±14.69%
LTP at 120 min [1, 7]: 119.25±12.82 % of baseline

Aβ: oligomeric Aβ42 prepared from lyophilized synthetic peptide (American Peptide) [reference compound]
PKA activity in slices (PKA [2]; 200 nM Aβ for 20 min alone): reduced
PKA activity (PKA [2]; 200 nM Aβ for 20 minutes): 71.75±2.21 % of control
glutamate-induced CREB phosphorylation (words) (phospho-CREB at Ser-133): annulled the increase in phospho-CREB
glutamate-induced CREB phosphorylation (words) (phospho-CREB at Ser-133; listed as Aβ42): strong decrease in CREB phosphorylation
PKA activity in cultures (PKA [3]; 3 μM Aβ for 24 hrs alone): reduced
GFP^u levels [4]: increase in GFP levels
PKA RIIα levels (words) (PKA RIIα): increase in PKA RIIα levels
PKA RIIα levels (words) (PKA RIIα; listed as Aβ42): marked increase in RIIα
PKA RIIα levels (words) (PKA RIIα; listed as amyloid-beta): increased
RIIα levels (PKA RIIα; Aβ42 200 nM for 20 minutes): 163.68±10.51 % of TAT-HA control slices
decrease of monoubiquitin levels (monoubiquitin; oligomeric Aβ42 200 nM for 20 min): ~70%
monoubiquitin levels (monoubiquitin; substance alone): reduced
ubiquitin-c-terminal hydrolase enzymatic activity (Uch-L1): 72.36±6.81 % of TAT-HA treated WT slices
BST in WT slices (words) ([6]; fusion protein 20 nM 1 hr or Aβ 200 nM 20 min, alone): did not reveal any significant difference among treatments; also recorded: does not affect CA1-BST
cAMP levels (cAMP): reduced cAMP levels
tetanus-induced increase in phospho-CREB (words) (phospho-CREB): blocks the increase in phosphorylated CREB; also recorded: blocked the increase in phospho-CREB; also recorded: blockade of the increase in CA1-phospho-CREB
tetanus-induced increase in phospho-CREB (words) (phospho-CREB; listed as Aβ42): blocked the increase in CA1 immunofluorescence
phospho-CREB immunofluorescence without theta-burst (phospho-CREB; no tetanus): did not increase immunofluorescence; also recorded: did not modify immunofluorescence; also recorded: neither Aβ42 alone nor TAT-HA-Uch-L1 alone nor TAT-HA-Uch-L1 paired with Aβ42 induced changes
LTP ([1]; Aβ 200 nM alone): markedly reduced; also recorded: LTP was reduced
LTP at 120 min after tetanus ([1]; oligomeric Aβ 200 nM, 20 min perfusion): 136.34±13.40 % of baseline slope

B1: TAT-HA-Uch-L1(S18Y): mutant TAT-HA-Uch-L1 construct, S18Y (ligase site), made by site-directed mutagenesis (protein, UniProt P09936 1-220, looked up, variant S18Y)
Ubiquitin carboxyl-terminal …: MQLKPMEINPEMLNKVLYRLGVAGQWRFVDVLGLEEESLGSVPAPACALLLLFPLTAQHENFRKKQIEELKGQEVSPKVYFMKQTIGNSCGTIGLIHAVANNQDKLGFEDGSVLKQFLSETEKMSPEDRAKCFEKNEAIQAAHDAVAQEGQCRVDDKVNFHFILFNNVDGHLYELDGRMPFPVNHGASSEDTLLKDAAKVCREFTEREQGEVRFSAVALC
modifications: fused to HIV TAT transduction peptide and HA tag
notes: mutant TAT-HA-Uch-L1 construct, S18Y (ligase site), made by site-directed mutagenesis
effect of Aβ on glutamate-induced CREB phosphorylation (words) (phospho-CREB at Ser-133): totally blocked the effect of Aβ on CREB phosphorylation; also recorded: completely opposed
effect of Aβ on glutamate-induced CREB phosphorylation (words) (phospho-CREB at Ser-133; listed as TAT-HA-Uch-L1 (S18Y)): completely opposed
rescue of LTP at different concentrations, S18Y versus TAT-HA-Uch-L1 (words) [1]: no difference between the two forms
rescue of LTP at different concentrations, S18Y versus TAT-HA-Uch-L1 (words) ([1]; listed as TAT-HA-Uch-L1 (S18Y)): No difference was detected
Aβ-induced impairment of CA1-LTP (words) [1]: protected; also recorded: completely reversed
Aβ-induced impairment of CA1-LTP (words) ([1]; listed as TAT-HA-Uch-L1 (S18Y)): significantly enhanced the amplitude of LTP
LTP in slices not treated with Aβ (words) ([1]; fusion protein 20 nM, 1 hr, WT slices, 3 theta-burst trains): did not affect the amounts of potentiation
baseline transmission in slices without tetanic stimulation [1]: Neither TAT-HA-Uch-L1(C90S) nor TAT-HA-Uch-L1(S18Y) affected baseline; also recorded: nor affected basal transmission
